Results from patent publication US5556744A, “Methods and compositions for diagnosing and treating certain HIV infected patients” (The Trustees of the University of Pennsylvania, priority 1994, dated 1996).

Key:
[1] = tested on: HIV-IIIB viral isolate; assay: Neutralization assay (HIV-IIIB, Hut-78 cells, p24 antigen ELISA); type: cell-based, HIV-1 IIIB
Description: (§1) The H9 cell line (a cutaneous T lymphoma line) infected by HIV-IIIB [ATCC CRL 8543] was used in the neutralization assay. The H9 cell line infected by HIV-MN was used in the anti-syncytial assays. SupT1 and Hut78 cells were used as the target cell lines for the anti-syncytial and neutralization assays. All cell lines were obtained from the National Institutes of Health AIDS Repository (Bethesda, Md.).
In a neutralization assay, 20 μl of maternal sera samples was placed in 96 round bottom well plates at final dilutions of 1:10, 1:90 and 1:810 in RPMI. The HIV-IIIB viral isolate was diluted in RPMI to a TCID50 of 100 units/ml. Twenty μl of the virus solution was placed in each well and the plate was incubated for one hour at 4° C. Hut-78 cells were incubated with 2 μg/ml of polybrene for one hour at 37° C. in a CO2 incubator. The HUT-78 cells were washed and resuspended in fresh RPMI to a final concentration of 4×10^6 cells/ml. Ten μl of the cell suspension was added to each well and the plate was incubated for one hour in a 37° C., CO2 incubator.
Fifteen μl of the serum/cell/virus solution was aliquoted to a new plate containing 200 μl of fresh RPMI and incubated for 6 days. After 6 days, 100 μl was used to analyze for p24 antigen. The p24 capture ELISA assay kit (Coulter Corporation, Hialeah, Fla.) was used to perform the measurements.
Further, sera samples at the same dilutions as described above were tested for residual p24 core protein or antibody to insure the results were due only to viral infection.

[2] = tested on: HIV-1; details: cited from earlier work
[3] = tested on: HIV-1 infected cells (MN isolate); assay: Anti-syncytial assay (inhibition of HIV-1 MN syncytium formation, SupT1 target cells); type: cell-based
Excerpt: as §1
To analyze the effect of the maternal serum samples on HIV-1 fusion, SupT1 cells were used as target cells in an anti-syncytial assay. Dilutions of the different maternal serum samples were made in 96 well plates in RPMI 1640 media containing 10% fetal calf serum at final dilutions of 1:4, 1:8, 1:16, 1:32, 1:64, 1:128, 1:256 or 1:512. HIV-1 infected cells (MN isolate) were then plated in the wells at a density of approximately 10^4 cells per well. SupT1 target cells were then added at 5×10^5 /well and the number of syncytia are determined after 3 days of incubation. Inhibition of syncytium formation by a serum sample was considered significant if the dilution which yielded a 50% reduction in the number of syncytia when compared to control was greater than 1:32. The average number of syncytia in the control (normal human serum) wells at the above dilutions were: 45.5, 48.5, 44, 48, 48.5, 41.5, 42 and 45.5 respectively.

[4] = tested on: maternal sera (antibodies); assay: ELISA peptide-binding of maternal sera (Example 6); parameters: species or system human
Method in brief: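 HIV-1 envelope peptides averaging 16 amino acids, covering external and transmembrane glycoprotein, were probed by ELISA. Third-trimester maternal sera, classed as transmitter or non-transmitter by child diagnosis, were each run on at least 40 peptides. Values give percent of sera binding a peptide.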

Sequence	Neutralizing activity of non-transmission sera which reacted with the peptide ([1]; Example 5)	Number of samples which bound the peptide and possessed neutralization activity ([1]; sera which bound the peptide)	Neutralizing activity of antisera generated to the peptide ([2]; antisera (animals))	Antisyncytial and neutralizing activities elicited by the peptide ([2]; in words, Example 5)	Antisyncytial activity of non-transmission sera which reacted with the peptide ([3]; Example 5)	Number of samples which bound the peptide and possessed anti-syncytial activity ([3]; sera which bound the peptide)	Number of Non-Transmitters which bound to peptide ([4]; Non-Transmitters, N = 12)	Percent of Non-Transmitters which bound to peptide ([4]; Non-Transmitters, N = 12) [%]	Number of Transmitters which bound to peptide ([4]; Transmitters, N = 4)	Percent of Transmitters which bound to peptide ([4]; Transmitters, N = 4) [%]	Percent of samples which bound the peptide and possessed neutralization activity ([1]; sera which bound the peptide) [%]	Percent of samples which bound the peptide and possessed anti-syncytial activity ([3]; sera which bound the peptide) [%]
CFRPGGGDMRDNWREL [Peptide 466]	All 3 of these sera exhibited neutralizing activity	all of them	exhibit neutralizing activity	can elicit both antisyncytial and neutralizing activities	possessed, to varying degrees, antisyncytial activity	all of them	0	0	0	0		
TLPCASDAKAYDTEV [Peptide 93]		3				6					50	100
